According to paper PMC8256712, “Crystal structures of Aspergillus oryzae Rib2 deaminase: the functional mechanism involved in riboflavin biosynthesis” (IUCrJ, 2021):

Columns and labels:
AoRib2_188 = target: T1, AoRib2_188 (Aspergillus oryzae, UniProt Q2UFA9); assay: X-ray crystal structure, soaked, […] A; type: binding; details: crystals pH 6.5 (MES), soaked 20 min in 50-100 mM DARIPP; active site with Zn2+
T1 construct: gene rib2; deaminase domain, residues 1-188 of 222, C-terminal segment deleted; Zn ligands His61, Cys102, Cys112, general base Glu63
T1 sequence (Q2UFA9 1-188): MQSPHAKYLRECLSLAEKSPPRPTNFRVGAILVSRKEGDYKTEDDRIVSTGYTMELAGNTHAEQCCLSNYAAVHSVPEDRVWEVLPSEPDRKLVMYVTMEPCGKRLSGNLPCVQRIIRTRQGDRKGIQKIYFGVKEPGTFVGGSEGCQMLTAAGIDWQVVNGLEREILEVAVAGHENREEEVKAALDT

AoRib2 = target: T2, AoRib2 (Aspergillus oryzae, UniProt Q2UFA9); assay: deaminase assay, fluorescence after diacetyl modification; type: biochemical; details: 310 K, 30 min; DARIPP made enzymatically in situ from GTP
T2 construct: gene rib2; full length, 222 residues; monomer
T2 sequence (Q2UFA9 1-222): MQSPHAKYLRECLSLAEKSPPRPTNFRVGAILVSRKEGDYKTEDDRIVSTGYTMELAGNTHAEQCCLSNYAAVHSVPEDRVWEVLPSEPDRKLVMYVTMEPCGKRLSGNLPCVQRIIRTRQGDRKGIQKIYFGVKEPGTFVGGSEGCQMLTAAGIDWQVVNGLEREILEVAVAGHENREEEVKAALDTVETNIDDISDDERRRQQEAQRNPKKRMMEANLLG

SMILES: Nc1nc(NC[C@H](O)[C@H](O)[C@H](O)COP(=O)(O)O)c(N)c(=O)[nH]1 [DARIPP, 2,5-diamino-6-ribitylamino-4(3H)-pyrimidinone 5′-phosphate]
- X-ray crystal structure, soaked, 1.58 A (AoRib2_188): DARIPP could be built nicely into strong electron density and is firmly embedded in the active site
- deaminase assay, fluorescence after diacetyl modification (AoRib2): the recombinant protein is able to catalyze the conversion of DARIPP to ARIPP
